Measurements as given in US12433882B2, “Treatments for amyotrophic lateral sclerosis using dazucorilant” (Corcept Therapeutics Incorporated, priority 2022, dated 2025).
Entries after “also recorded” stand apart in the source; their conditions may differ.

Assays:
[1] = Brain penetration study, multiple oral dose PK in plasma and CSF; assay type: in vivo, human
Procedure: (§1) An adaptive dose, double-blind, placebo-controlled study (NCT04249323, EudraCT 2019-004258-27) was conducted in 110 healthy male and female volunteers (18-60 years old; BMI 18-30 kg/m2; weight≤102 kg; “First In Human” (FIH) study).

GR = assay: Dexamethasone-induced TAT activity in primary hepatocytes from monkeys; assay type: cell-based
Procedure: Dazucorilant is selective for GR over other nuclear hormone receptors, and a range of other receptors, enzymes, and ion channels. For example, dazucorilant has high selectivity for GR relative to the progesterone receptor (PR), androgen receptor, and estrogen receptor, showing no significant binding to these receptors at a concentration of 10 μM (0%, 1.5% and […], respectively).

[2] = system: effect of prednisone on eosinophils, lymphocytes, neutrophils, osteocalcin; assay: First In Human study Part 3, proof of pharmacological effect (prednisone challenge); assay type: in vivo; details: prednisone+dazucorilant vs. prednisone alone
From the text: Linear mixed model of PD parameter estimates from part 3 of the FIE study, including terms for treatment fitted as a fixed effect, subject fitted as a random effect, and baseline concentration values fitted as a covariate. AUEC, area under the effect curve; cfb, change from baseline; CI, confidence interval; Emax, maximum change; ns, not significant.

[3] = First In Human study Part 1, single ascending dose PK with or without food; details: for AUC(0-inf)/D (adjusted geometric mean) / AUC(0-last)/D (adjusted geometric mean) / Cmax/D (adjusted geometric mean): single dose
Procedure: as §1
ANOVA model of natural log-transformed PK parameters from part 1 of the FIH study, including a term for treatment fitted as fixed effect. PK parameters normalized to the equivalent of a 1-mg dose. AUC, area under the curve; CI, confidence interval; Cmax, maximum concentration; D, dose.
ANOVA model of natural log-transformed PK parameters from part 1 of the FIH study, including a term for treatment fitted as fixed effect. CI, confidence interval; Cmax, maximum concentration; AUC, area under the curve.

Wobbler mouse = Wobbler mouse model of ALS; assay type: in vivo; details: administration for 21 days
[4] = target: T1, progesterone receptor (PR) (Homo sapiens, UniProt P06401); assay: Progesterone receptor binding; details: 10 μM
T1 sequence (P06401 1-933): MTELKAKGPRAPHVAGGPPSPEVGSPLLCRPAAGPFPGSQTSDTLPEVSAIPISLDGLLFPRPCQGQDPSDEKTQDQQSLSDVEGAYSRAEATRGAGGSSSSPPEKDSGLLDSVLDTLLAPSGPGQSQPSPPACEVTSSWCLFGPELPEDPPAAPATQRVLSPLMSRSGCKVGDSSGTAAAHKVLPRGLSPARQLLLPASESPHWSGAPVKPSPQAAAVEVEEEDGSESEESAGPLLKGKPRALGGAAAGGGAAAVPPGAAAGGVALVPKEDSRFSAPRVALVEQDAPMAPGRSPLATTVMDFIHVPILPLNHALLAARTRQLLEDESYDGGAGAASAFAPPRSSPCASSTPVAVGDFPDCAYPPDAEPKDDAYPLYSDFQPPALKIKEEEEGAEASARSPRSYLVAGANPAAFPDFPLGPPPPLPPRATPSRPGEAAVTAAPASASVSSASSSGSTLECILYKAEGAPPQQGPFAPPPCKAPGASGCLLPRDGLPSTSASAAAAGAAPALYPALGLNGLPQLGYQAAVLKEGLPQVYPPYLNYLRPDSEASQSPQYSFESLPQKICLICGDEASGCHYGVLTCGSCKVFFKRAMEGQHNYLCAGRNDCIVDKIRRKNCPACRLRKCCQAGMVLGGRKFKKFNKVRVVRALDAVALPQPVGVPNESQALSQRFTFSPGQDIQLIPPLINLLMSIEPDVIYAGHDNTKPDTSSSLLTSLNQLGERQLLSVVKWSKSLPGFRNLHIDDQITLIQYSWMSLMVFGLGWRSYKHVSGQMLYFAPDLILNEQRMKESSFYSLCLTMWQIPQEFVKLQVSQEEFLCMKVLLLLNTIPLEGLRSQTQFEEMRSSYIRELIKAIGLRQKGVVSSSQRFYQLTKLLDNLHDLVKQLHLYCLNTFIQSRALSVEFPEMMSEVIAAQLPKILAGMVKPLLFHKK

cortisol or ACTH levels = assay: First In Human study Part 2, multiple doses: cortisol and ACTH levels; assay type: in vivo; details: part 2 of the FIH study
Procedure: as §1

[5] = 2-fold dose escalation, 450 mg to 900 mg fed
[6] = 3-fold dose escalation, 150 mg to 450 mg fasted

For `O=C(c1ccccn1)[C@]12Cc3cnn(-c4ccc(F)cc4)c3C=C1CCN(S(=O)(=O)c1ccc(C(F)(F)F)cc1)C2` [dazucorilant, (R)-(1-(4-fluorophenyl)-6-((4-(trifluoromethyl)phenyl)sulfonyl)-4,4a, 5,6,7,8-hexahydro-1-H-pyrazolo[3,4-g]isoquinolin-4a-yl) (pyridin-2-yl)methanone], the “dose proportionality of exposures” value ([1]; 300 mg relative to 150 mg, daily for 14 days) was “greater than dose-proportional increase in dazucorilant exposures”, the “detection in the CSF” value ([1]; 1 week of QD dosing, 150 mg and 300 mg, fed) was “detectable in the CSF in all study participants” and the “time to steady state of exposure” value ([1]; QD dosing) was at most 1 week. For the same molecule, the “distribution to the cerebrospinal fluid (CSF)” value ([1]; oral administration, healthy volunteers) was “distribution of dazucorilant is observed in the cerebrospinal fluid; also recorded: distribution to the CSF was observed”, the “steady state exposures (Cmax, AUC0-24), 300 vs. 150 mg” value ([1]; steady state, QD dosing) was “approximately 4 fold” and the “dexamethasone-induced increase in TAT activity” value (GR) was “prevented the dexamethasone-induced increase in TAT activity”. The “effect of dazucorilant on prednisone-induced changes in eosinophils, lymphocytes, osteocalcin, neutrophils” value [2] was “ameliorated the effect of prednisone on these parameters”, the “AUC(0-inf)/D (adjusted geometric mean)” value ([3]; 150 mg FASTED) was 2.18 ng·h/mL/mg and the “AUC(0-last)/D (adjusted geometric mean)” value ([3]; 150 mg FASTED) was 1.69 ng·h/mL/mg. For the same molecule, the “Cmax/D (adjusted geometric mean)” value ([3]; 150 mg FASTED) was 0.494 ng/mL/mg, the “exposure in fed vs fasted subjects” value ([3]; 300 mg with and without food, FIG. 1A/1B) was “Greater dazucorilant exposure was observed when dazucorilant was administered to fed subjects” and the “AUC(0-inf) Ratio Fed:Fasted” value ([3]; 450 mg) was 250.7%. The “AUC(0-last) Ratio Fed:Fasted” value ([3]; 450 mg) was 250.7%, the “Cmax Ratio Fed:Fasted” value ([3]; 450 mg) was 202.3% and the “AUC(0-inf) (adjusted geometric mean)” value ([3]; 450 mg FASTED) was 1290 ng·h/mL. The “AUC(0-last) (adjusted geometric mean)” value ([3]; 450 mg FASTED) was 1180 ng·h/mL, the “Cmax (adjusted geometric mean)” value ([3]; 450 mg FASTED) was 251 ng/mL and the “AUC(0-inf)/D (adjusted geometric mean)” value ([3]; 450 mg FASTED) was 2.86 ng·h/mL/mg. The “AUC(0-last)/D (adjusted geometric mean)” value ([3]; 450 mg FASTED) was 2.62 ng·h/mL/mg, the “Cmax/D (adjusted geometric mean)” value ([3]; 450 mg FASTED) was 0.557 ng/mL/mg and the “AUC(0-inf) (adjusted geometric mean)” value ([3]; 450 mg FED) was 3220 ng·h/mL. The “AUC(0-last) (adjusted geometric mean)” value ([3]; 450 mg FED) was 2950 ng·h/mL, the “Cmax (adjusted geometric mean)” value ([3]; 450 mg FED) was 508 ng/mL and the “AUC(0-inf)/D (adjusted geometric mean)” value ([3]; 450 mg FED) was 7.17 ng·h/mL/mg. The “AUC(0-last)/D (adjusted geometric mean)” value ([3]; 450 mg FED) was 6.56 ng·h/mL/mg, the “Cmax/D (adjusted geometric mean)” value ([3]; 450 mg FED) was 1.13 ng/mL/mg and the “AUC(0-inf)/D Ratio High:Low Dose” value ([3]; 450 mg vs 150 mg FASTED) was 131.3%. The “AUC(0-last)/D Ratio High:Low Dose” value ([3]; 450 mg vs 150 mg FASTED) was 155.2%, the “Cmax/D Ratio High:Low Dose” value ([3]; 450 mg vs 150 mg FASTED) was 112.9% and the “AUC(0-inf)/D (adjusted geometric mean)” value ([3]; 900 mg FED) was 10.2 ng·h/mL/mg. The “AUC(0-last)/D (adjusted geometric mean)” value ([3]; 900 mg FED) was 8.33 ng·h/mL/mg, the “Cmax/D (adjusted geometric mean)” value ([3]; 900 mg FED) was 1.23 ng/mL/mg and the “AUC(0-inf)/D Ratio High:Low Dose” value ([3]; 900 mg vs 450 mg FED) was 42.3%. For the same molecule, the “AUC(0-last)/D Ratio High:Low Dose” value ([3]; 900 mg vs 450 mg FED) was 127.0%, the “Cmax/D Ratio High:Low Dose” value ([3]; 900 mg vs 450 mg FED) was 109.2% and the “increase in AUC(0-inf) on dose escalation” value [3, 5] was 2.8 fold. The “increase in Cmax on dose escalation” value [3, 5] was 2.2 fold, the “increase in AUC(0-inf) on dose escalation” value [3, 6] was 4.0 fold and the “increase in Cmax on dose escalation” value [3, 6] was 3.4 fold. For the same molecule, the “food effect, increase in exposure” value ([3]; high-fat breakfast vs fasting (Table 2, 450 mg)) was over 2 fold, the forepaw atrophy (Wobbler mouse) was “reducing forepaw atrophy” and the neurodegeneration and inflammation (Wobbler mouse) was “inhibiting neurodegeneration and inflammation”. The “performance in the rotarod test” value (Wobbler mouse) was “overcoming the impaired performance in the rotarod test”, the “binding to progesterone receptor” value [4] was 0% and the “effects on morning or evening cortisol or ACTH levels” value (cortisol or ACTH levels) was “no notable effects”.
